Measurements: the NIST ThermoML archive (doi:10.1016/j.jct.2018.12.021)

Assay: mn = molality of the nth substance listed, in mol/kg
Settings: for electrical conductivity / mass density: 100 kPa, Liquid; for electrical conductivity: Direct current cell with electrodes; for mass density: Vibrating tube method; for surface tension liquid-gas: Ring tensiometer

CCCCCCCCCCCC[n+]1cscc1C.[Br-] [N-dodecyl-4-methylthiazolium bromide] + O
Settings	electrical conductivity [S/m]	mass density [kg/m3]	surface tension liquid-gas [mN/m]
293.15 K, m1 = 0.0015	0.0135	998.25	–
293.15 K, m1 = 0.00206	0.0179	998.29	–
293.15 K, m1 = 0.0025	0.0221	998.31	–
293.15 K, m1 = 0.00402	0.0346	998.4	–
293.15 K, m1 = 0.005	0.0428	998.45	–
293.15 K, m1 = 0.00561	–	998.48	–
293.15 K, m1 = 0.00708	0.0591	998.56	–
293.15 K, m1 = 0.00803	–	998.6	–
293.15 K, m1 = 0.00906	0.0738	998.66	–
293.15 K, m1 = 0.01216	0.0813	998.81	–
293.15 K, m1 = 0.01507	0.0893	998.96	–
293.15 K, m1 = 0.01759	–	999.07	–
293.15 K, m1 = 0.02033	0.106	999.21	–
293.15 K, m1 = 0.02365	–	999.38	–
298.15 K, m1 = 0.0015	0.015	997.07	–
298.15 K, m1 = 0.00206	0.02	997.1	–
298.15 K, m1 = 0.0025	0.0246	997.12	–
298.15 K, m1 = 0.00402	0.0387	997.2	–
298.15 K, m1 = 0.005	0.0479	997.25	–
298.15 K, m1 = 0.00561	–	997.29	–
298.15 K, m1 = 0.00708	0.0662	997.36	–
298.15 K, m1 = 0.00803	–	997.42	–
298.15 K, m1 = 0.00906	0.0822	997.47	–
298.15 K, m1 = 0.01216	0.0921	997.62	–
298.15 K, m1 = 0.01507	0.101	997.75	–
298.15 K, m1 = 0.01759	–	997.86	–
298.15 K, m1 = 0.02033	0.12	998	–
298.15 K, m1 = 0.02365	–	998.16	–
303.15 K, m1 = 0.0015	0.0166	995.66	47.78
303.15 K, m1 = 0.00206	0.0222	995.68	43.39
303.15 K, m1 = 0.0025	0.0272	995.7	41.79
303.15 K, m1 = 0.00402	0.0428	995.77	39.49
303.15 K, m1 = 0.005	0.0529	995.82	35.96
303.15 K, m1 = 0.00561	–	995.86	–
303.15 K, m1 = 0.00708	0.0733	995.93	30.49
303.15 K, m1 = 0.00803	–	995.98	–
303.15 K, m1 = 0.00906	0.0917	996.03	30.89
303.15 K, m1 = 0.01216	0.103	996.17	31.36
303.15 K, m1 = 0.01507	0.114	996.3	30.86
303.15 K, m1 = 0.01759	–	996.4	–
303.15 K, m1 = 0.02033	0.137	996.53	30.91
303.15 K, m1 = 0.02365	–	996.65	–
308.15 K, m1 = 0.0015	0.0184	994.04	–
308.15 K, m1 = 0.00206	0.0244	994.06	–
308.15 K, m1 = 0.0025	0.03	994.08	–
308.15 K, m1 = 0.00402	0.047	994.13	–
308.15 K, m1 = 0.005	0.0581	994.18	–
308.15 K, m1 = 0.00561	–	994.21	–
308.15 K, m1 = 0.00708	0.0803	994.28	–
308.15 K, m1 = 0.00803	–	994.33	–
308.15 K, m1 = 0.00906	0.1	994.37	–
308.15 K, m1 = 0.01216	0.114	994.49	–
308.15 K, m1 = 0.01507	0.127	994.61	–
308.15 K, m1 = 0.01759	–	994.69	–
308.15 K, m1 = 0.02033	0.15	994.82	–
308.15 K, m1 = 0.02365	–	994.89	–
313.15 K, m1 = 0.0015	0.02	992.22	–
313.15 K, m1 = 0.00206	0.0267	992.23	–
313.15 K, m1 = 0.0025	0.0329	992.24	–
313.15 K, m1 = 0.00402	0.0515	992.28	–
313.15 K, m1 = 0.005	0.0634	992.31	–
313.15 K, m1 = 0.00561	–	992.34	–
313.15 K, m1 = 0.00708	0.0877	992.39	–
313.15 K, m1 = 0.00803	–	992.43	–
313.15 K, m1 = 0.00906	0.11	992.47	–
313.15 K, m1 = 0.01216	0.125	992.61	–
313.15 K, m1 = 0.01507	0.138	992.72	–
313.15 K, m1 = 0.01759	–	992.81	–
313.15 K, m1 = 0.02033	0.162	992.9	–
313.15 K, m1 = 0.02365	–	993	–
